Data: patent publication US5354749A, “Sulfonylbenzyl-substituted benzo- and pyridopyridones” (Bayer Aktiengesellschaft, priority 1992, dated 1994)

What was measured:
[1] = test system: angiotensin II-induced contraction of the isolated rabbit aorta; experiment: Inhibition of angiotensin II-induced contraction (vasoconstriction) on isolated aortic rings from rabbits in vitro; conditions: at 3rd = submaximum agonist concentration
Method: Rabbits of both sexes are stunned by a blow to the neck and exsanguinated, or optionally anaesthetised with Nembutal (about 60-80 mg/kg i.v.) and sacrificed by opening the thorax. The thoracic aorta is removed, freed from adhering connective tissue and divided into ring segments 1.5 mm wide, and these are introduced individually, under an initial load of about 3.5 g, into 10 ml organ baths with carbogen-gassed Krebs-Henseleit nutrient solution thermostatically controlled at 37° C. and having the following composition: 119 mmol/l of NaCl; 2.5 mmol/l of CaCl2 ×2 H2 O; 1.2 mmol/l of KH2 PO4; 10 mmol/l of glucose; 4.8 mmol/l of KCl; 1.4 mmol/l of MgSO4 ×7 H2 O and 25 mmol/l of NaHCO3.
The contractions are recorded isometrically by Statham UC2 cells via a bridge amplifier (from Mulheim or DSM Aalen) and digitised and evaluated by means of an A/D converter (System 570, Keithley Munich). The agonist dose/effect curves (DEC) are plotted hourly. For each DEC, 3 or 4 individual concentrations are applied to the baths at intervals of 4 minutes. At the end of the DEC and the subsequent wash-out cycles (16 times for in each case about 5 seconds/minute with the abovementioned nutrient solution), a 28-minute rest or incubation phase follows, within which the contractions as a rule reach the starting value again. […]

Angiotensin II receptor = molecular target: T1, Angiotensin II receptor (Bos taurus, UniProt P25104); experiment: Angiotensin II receptor binding on membrane fractions of the adrenal cortex (3H-angiotensin II); conditions: bovine adrenal cortex membranes; 3H-angiotensin II 3-5 nM; 60 minutes, room temperature
T1 construct: carried out on partially purified membrane fractions of bovine AC with radioactive angiotensin II; from tissue; host or cells: bovine adrenal cortex, partially purified membrane fractions
T1 sequence (P25104 1-359): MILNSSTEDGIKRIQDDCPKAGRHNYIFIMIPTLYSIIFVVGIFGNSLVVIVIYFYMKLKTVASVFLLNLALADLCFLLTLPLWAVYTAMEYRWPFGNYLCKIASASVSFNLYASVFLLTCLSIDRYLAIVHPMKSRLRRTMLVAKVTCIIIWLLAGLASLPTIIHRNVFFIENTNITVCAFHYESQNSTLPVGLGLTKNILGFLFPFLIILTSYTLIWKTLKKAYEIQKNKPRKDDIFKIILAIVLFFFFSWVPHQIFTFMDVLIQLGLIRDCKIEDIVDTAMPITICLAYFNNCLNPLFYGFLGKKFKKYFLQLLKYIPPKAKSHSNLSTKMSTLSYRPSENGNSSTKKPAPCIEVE
Method: Bovine adrenal cortices (AC) which are freshly removed and thoroughly freed from medulla of the capsule are comminuted in sucrose solution (0.32 M) with the aid of an Ultra-Turrax (Janke & Kunkel, Staufen i.B.) to give a coarse membrane homogenate, which is partially purified in two centrifugation steps to give membrane fractions. The investigations in receptor binding are carried out on partially purified membrane fractions of bovine AC with radioactive angiotensin II in an assay volume of 0.25 ml which contains, specifically, the partially purified membranes (50-80 μg), ^3 H-angiotensin II (3-5 nM), test buffer solution (50 mM Tris, pH 7.2) 5 mM MgCl2 and the substances to be investigated. After an incubation time of 60 minutes at room temperature, the non-bound radioactivity of the samples is separated off by means of moistened glass fibre filters (Whatman GF/C) and the bound radioactivity is measured […] in a scintillation cocktail, after the protein has been washed with ice-cold buffer solution (50 mM Tris/HCl, pH 7.4, 5% PEG 6000). The raw data were analysed with computer programs to give Ki and IC50 values (Ki : IC50 values corrected for the radioactivity used; IC50 values: concentration at which the substance to be investigated causes 50% inhibition of the specific binding of the radioligand).

`CCCCc1cc2ccccc2c(=O)n1Cc1ccc(S(=O)(=O)N2CCCC2C(=O)O)cc1Cl` (centres unmarked) [Example 2, N-4-[3-Butyl-1,2-dihydro-1-oxo-isoquinolin-2-yl-methyl]3-chlorophenylsulphonylproline] gave an IC50 [1] of 660 nM and a Ki (Angiotensin II receptor) of 1700 nM.
